From publication PMC7996536, “Optimization of Tilmicosin-Loaded Nanostructured Lipid Carriers Using Orthogonal Design for Overcoming Oral Administration Obstacle” (Pharmaceutics, 2021)
Converted amounts (≈) assume the structure as drawn. Structures can show the parent of a compound that is named as a salt. Where two headings read alike, the source gives them in different places.

Legend:
[1] = tested on: MDCK-chAbcg2/abcb1 monolayers; assay: Transport mechanism of TMS-NLCs across monolayers (tracers, 4 °C, endocytosis inhibitors)
Procedure: To investigate the transport mechanism of TMS-NLCs, propranolol (100 µM) and lucifer yellow (225 µM) as the tracers were added to the AP side and co-incubated with TMS-NLCs for 4 h. The tracers that passed through monolayers to the BL side were quantified. The transport experiments of TMS-NLCs across MDCK-chAbcg2/abcb1 monolayers were also conducted at 4 °C. To get further insights into the transcellular transport of TMS-NLCs, the monolayers were pre-incubated with various endocytosis inhibitors on the AP side for 1 h and then co-incubated with TMS-NLCs for 4 h. The determination of TMS in the samples collected from the BL side was analyzed by HPLC.

[2] = Permeability of cell monolayers (tracers); format: in vitro ADME, canine; details: dog, 37 °C, lucifer yellow 225 µM, propranolol 100 µM
Procedure: (§1) MDCK and MDCK-chAbcg2/Abcb1 cells were seeded on 12-well Transwell® polycarbonate inserts at a density of 2 × 10^5 cells per well to constitute in vitro cell monolayer models. The apical side (AP) of the insert was filled with 0.5 mL medium, and the basolateral (BL) side was filled with 1.5 mL medium. The medium was replaced every two days. It took 5~7 days to form an intact cell monolayer.
(§2) During the cultivation, the integrity of cell monolayers was evaluated by the transepithelial electrical resistance (TEER) values measured with Epithelial Volt-Ohm Meter (Millipore, Burlington, MA, USA). Monolayers with TEER values over 500 and 1700 Ω·cm^2 of MDCK and MDCK-chAbcg2/Abcb1 cells respectively were used for drug transport experiments, and the TEER values were also checked after the transport experiment to guarantee the integrity of cell monolayers. TEER = (Rtotal − Rblank) × A (Ω·cm^2)
(§3) After a week of cultivation, the AP side was filled with 0.5 mL propranolol (100 µM) or lucifer yellow (225 µM) and 1.5 mL of Hank’s solution on the BL side for 4 h at 37 °C. The solution on the BL side was collected for fluorescence analysis. The detection wavelengths were 428/540 nm ([…]) and 290/330 nm (propranolol), respectively. The apparent permeability coefficient (Papp) was calculated according to the following equation [24]:Papp = dQ/(dt * AC0) where dQ/dt is the transport rate in the receiver solution, A is the membrane surface area, and C0 is the initial concentration in the donor compartment.

[3] = tested on: Staphylococcus aureus QWJAB25; assay: Microdilution broth MIC; format: cell-based; details: S. aureus
Procedure: (§4) Microdilution broth assay was carried out to evaluate the antibacterial activity of API and TMS-NLCs according to the guidelines of the CLSI. The minimal inhibitory concentration (MIC) was determined against 2 strains of Gram-positive bacteria and 2 strains of Gram-negative bacteria. Staphylococcus aureus QWJAB25 and Streptococcus agalactiae A27 were isolated from milk in a scale farm located in Yangzhou, Jiangsu Province in 2019. The Escherichia coli used in this study was ATCC 25922. The Salmonella Typhimurium strain 1344 was donated by Associate Professor Jian Lin from College of Life Sciences, Nanjing Agricultural University.

[4] = tested on: Streptococcus agalactiae A27; assay: Microdilution broth MIC; format: cell-based; details: S. agalactiae
Procedure: as §4

[5] = tested on: Escherichia coli ATCC 25922; assay: Microdilution broth MIC; format: cell-based; details: ATCC25922, E. coli
Procedure: as §4

[6] = tested on: Salmonella Typhimurium strain 1344; assay: Microdilution broth MIC; format: cell-based; details: Salmonella enterica; S. Typhimurium
Procedure: as §4

[7] = In vitro drug release by the dialysis bag method; format: physicochemical; details: 48 h
Procedure: The in vitro drug release behavior of TMS-NLCs was carried out over 48 h by the dialysis bag method. Briefly, TMS-NLCs or the corresponding active pharmaceutical ingredient (API) of TMS (3 mL, 10 mg/mL) was added into a dialysis bag (MWCO of 100 kD, 16 mm, and 0.79 mL/cm), immersed in the simulated gastric or intestinal juice (500 mL) at 37 °C, and stirred under the magnetic stirrer with 100 rpm. At the set time, the samples (1 mL) were taken out and substituted by the same volume of fresh receptor fluids, and the TMS concentrations were detected by HPLC.
In this study, the concentrations of TMS in various media were detected with HPLC (Thermo U3000, Thermo Fisher Scientific, New York, NY, USA) with a C18 Reverse-phase column (5 µm, 4.6 mm inner diameter × 250 mm length, Agilent, Palo Alto, CA, USA). The mobile phase was acetonitrile–tetrahydrofuran–water–n-dibutylamine phosphate buffer salt solution (12:5.5:80:2.5; v/v). The column temperature was 30 °C, the injection volume was 20 µL, the UV detection wavelength was 291 nm, and the flow rate was 1 mL/min. The samples were filtered through a 0.22 µm filter membrane before HPLC analysis. The concentration of TMS was calculated using the standard curve equation (y = 31.314x − 2.0603, R^2 = 0.9999) for HPLC analysis of TMS, which had the good linear pattern over a range from 1 to 20 µg/mL as reported previously.

chAbcg2/Abcb1 (P-gp) = assay: Bidirectional transport of API and TMS-NLCs across cell monolayers; format: in vitro ADME, canine; details: dog, MDCK-chAbcg2/Abcb1; for Papp A→B at 4 h, 10 µg/mL / Papp B→A at 4 h, 10 µg/mL: 37 °C; for efflux ratio at 4 h, 10 µg/mL: read-out: ER
Procedure: as §1
(§5) The permeability efficiency was evaluated by comparing the bidirectional transport between API and TMS-NLCs. Briefly, apical-to-basolateral (AP→BL) and basolateral-to-apical (BL→AP) transport across monolayers was conducted by adding 10 µg/mL API or TMS-NLCs to donor compartments and incubating at 37 °C for 4 h. Then, the samples from receiver compartments were taken to analyze TMS concentrations by HPLC.
(§6) TMS is the substrate of glycoprotein (P-gp). To evaluate the inhibition effect of TMS-NLCs on P-gp mediated efflux, cell monolayers were incubated with the P-gp inhibitor verapamil (100 µM) for 1 h, and then, the medium was replaced with a mixture of verapamil and API or TMS-NLCs on one side and co-incubated for 4 h for bidirectional transport assay.
(§7) The efflux ratio (ER) and net efflux ratio (NER) values were obtained from the following equation [27, 28]:ER = Papp(BL→AP)/Papp(AP→BL) NER = ER(MDCK-chAbcg2/Abcb1)/ER(MDCK).

[8] = tested on: MDCK-chAbcg2/Abcb1 cell monolayers; assay: as above; format: in vitro ADME, canine; details: ER(MDCK-chAbcg2/Abcb1)/ER(MDCK)
Procedure: as §1, §5, §6, §7

[9] = as above; format: in vitro ADME, canine; details: dog, MDCK; for Papp A→B at 4 h, 10 µg/mL / Papp B→A at 4 h, 10 µg/mL: 37 °C; for efflux ratio at 4 h, 10 µg/mL: read-out: ER
Procedure: as §1, §5, §6, §7

MDCK-chAbcg2/Abcb1 cells = assay: MTT cell viability; format: cell-based, canine; details: up to 50 µg/mL, 4 h, Figure 4B
Procedure: (§8) MTT assay was used to evaluate cell viability. Cells were seeded on 96-well plates 1 × 10^4 cells per well, cultured for 24 h until 90% confluent, and exposed to different concentrations of NLCs for 4 h. Then, the medium was replaced with 20 µL MTT (5 mg/mL) and 180 µL serum-free medium. After incubation for 4 h, the medium containing MTT was substituted with 150 µL DMSO. The absorbance of formazan was measured by a microplate reader (BIO-RAD, Hercules, CA, USA) at 490 nm. Untreated cells were taken as the control. The cytotoxicity was expressed as the cell viability compared with the untreated cells. Similarly, the cytotoxicity of endocytosis inhibitors were also evaluated, and the concentrations of each drug were chosen on the basis of the published literature, and EIPA (50 µM), chlorpromazine (30 µM), dynasore (80 µM), and MβCD (2 mM) were used in the present study.

MDCK cells = assay: MTT cell viability; format: cell-based, canine; details: up to 50 µg/mL, 4 h, Figure 4A
Procedure: as §8

[10] = tested on: MDCK-chAbcg2/Abcb1 cell monolayers; assay: Permeability of cell monolayers (tracers); format: in vitro ADME, canine; details: AP to BL, 4 h, 37 °C, lucifer yellow 225 µM, propranolol 100 µM
Procedure: as §1, §2, §3

MDCK cell monolayers = assay: Permeability of cell monolayers (tracers); format: in vitro ADME, canine; details: AP to BL, 4 h, 37 °C, lucifer yellow 225 µM, propranolol 100 µM
Procedure: as §1, §2, §3

For `CC(C)NCC(O)COc1cccc2ccccc12` (centres unmarked) [Propranolol, propranolol hydrochloride], the “Papp of tracer co-incubated with TMS-NLCs versus without” value [1] was “no significant difference”, the Papp at 4 h, 100 µM ([2]; MDCK, AP to BL) was 16.2 ± 0.65 ×10⁻⁶ cm/s and the Papp at 4 h, 100 µM ([2]; MDCK-chAbcg2/Abcb1, AP to BL) was 17.6 ± 0.64 ×10⁻⁶ cm/s.

Work on `CC[C@H]1OC(=O)C[C@@H](O)[C@H](C)[C@@H](O[C@@H]2O[C@H](C)[C@@H](O)[C@H](N(C)C)[C@H]2O)[C@@H](CCN2C[C@H](C)C[C@H](C)C2)C[C@@H](C)C(=O)/C=C/C(C)=C/[C@@H]1CO[C@@H]1O[C@H](C)[C@@H](O)[C@@H](OC)[C@H]1OC` [API, Tilmicosin] yielded an MIC [3] of under 0.5 µg/mL, an MIC [4] of 16 µg/mL (≈ 18.4 µM) and an MIC [5] of 16 µg/mL (≈ 18.4 µM). The MIC [6] was 16 µg/mL (≈ 18.4 µM), the “Papp at 4 °C” value [1] was “under the detection limit” and the in vitro release ([7]; SGF, pH 1.2, 37 °C) was about 80%. For the same molecule, the in vitro release ([7]; SIF, pH 6.8, 37 °C) was about 80%, the Papp A→B at 4 h, 10 µg/mL (chAbcg2/Abcb1 (P-gp); with verapamil (100 µM)) was 0.39 ± 0.04 ×10⁻⁶ cm/s and the Papp B→A at 4 h, 10 µg/mL (chAbcg2/Abcb1 (P-gp); with verapamil (100 µM)) was 0.39 ± 0.07 ×10⁻⁶ cm/s. The efflux ratio at 4 h, 10 µg/mL (chAbcg2/Abcb1 (P-gp); with verapamil (100 µM)) was 1, the Papp A→B at 4 h, 10 µg/mL (chAbcg2/Abcb1 (P-gp); without verapamil) was 0.4 ± 0.02 ×10⁻⁶ cm/s and the Papp B→A at 4 h, 10 µg/mL (chAbcg2/Abcb1 (P-gp); without verapamil) was 1.06 ± 0.03 ×10⁻⁶ cm/s. The efflux ratio at 4 h, 10 µg/mL (chAbcg2/Abcb1 (P-gp); without verapamil) was 2.63, the NER ([8]; with verapamil (100 µM)) was 0.94 and the NER ([8]; without verapamil) was 2.07. It also gave a Papp A→B at 4 h, 10 µg/mL ([9]; with verapamil (100 µM)) of 0.38 ± 0.02 ×10⁻⁶ cm/s, a Papp B→A at 4 h, 10 µg/mL ([9]; with verapamil (100 µM)) of 0.41 ± 0.04 ×10⁻⁶ cm/s and an efflux ratio at 4 h, 10 µg/mL ([9]; with verapamil (100 µM)) of 1.06. It also gave a Papp A→B at 4 h, 10 µg/mL ([9]; without verapamil) of 0.42 ± 0.04 ×10⁻⁶ cm/s, a Papp B→A at 4 h, 10 µg/mL ([9]; without verapamil) of 0.53 ± 0.02 ×10⁻⁶ cm/s and an efflux ratio at 4 h, 10 µg/mL ([9]; without verapamil) of 1.27. The “cell viability compared to untreated cells” value (MDCK-chAbcg2/Abcb1 cells) was “not significantly decreased” and the “cell viability compared to untreated cells” value (MDCK cells) was “not significantly decreased”.

With lucifer yellow the “Papp of tracer co-incubated with TMS-NLCs versus without” value ([1]; AP side, 4 h, Figure 5A) was “no significant difference”, the Papp [10] was 0.13 ± 0.01 ×10^−6 cm/s and the Papp (MDCK cell monolayers) was 0.22 ± 0.06 ×10^−6 cm/s.
